Assay results as given in article PMC8160793, “Potent Antimicrobial and Antibiofilm Activities of Feleucin-K3 Analogs Modified by α-(4-Pentenyl)-Ala against Multidrug-Resistant Bacteria” (Biomolecules, 2021).
≈ marks a conversion by molar mass, not a printed value. Square brackets hold non-standard residues; d marks the D form. Peptide text beside a SMILES is read from it. ξ: configuration not given here. ξαMeGly(pent-4-enyl) = C=CCCCC(C)(N)C(=O)O

What was measured:
E. coli ATCC 25922 = type: cell-based; details: ATCC 25922, 18 h
Experimental: (§1) The minimum inhibitory concentration (MIC) of the Feleucin-K3 analogs was tested by the broth microdilution method. Sensitive bacteria and drug-resistant bacteria were diluted to 1 × 10^6 CFU/mL, according to the McFarland standards. Bacterial suspension and peptide solutions (8–128 μg/mL) were incubated at 37 °C for 18 h. The minimum concentration without obvious bacterial growth was the MIC of the peptides. The stability of the analogs in a physiological salt environment was also investigated. In brief, salt powder (450-mM NaCl) was dissolved in deionized water, and the following investigational steps were the same as those described before. The above steps were repeated several times, until the same value was obtained three times.

MRSA 113 = type: cell-based, Staphylococcus aureus; details: 113, 18 h
Experimental: as §1

MRSA 23 = type: cell-based, Staphylococcus aureus; details: 23, 18 h
Experimental: as §1

MRSA 48 = type: cell-based, Staphylococcus aureus; details: 48, 18 h
Experimental: as §1

MRSA 51 = type: cell-based, Staphylococcus aureus; details: 51, 18 h
Experimental: as §1

MRSA 52 = type: cell-based, Staphylococcus aureus; details: 52, 18 h
Experimental: as §1

MRSA 54 = type: cell-based, Staphylococcus aureus; details: 54, 18 h
Experimental: as §1

MRSA 71 = type: cell-based, Staphylococcus aureus; details: 71, 18 h
Experimental: as §1

MRSA 74 = type: cell-based, Staphylococcus aureus; details: 74, 18 h
Experimental: as §1

MRSA 75 = type: cell-based, Staphylococcus aureus; details: 75, 18 h
Experimental: as §1

MRSA 936 = type: cell-based, Staphylococcus aureus; details: 936, 18 h
Experimental: as §1

MRSA ATCC 33591 = type: cell-based, Staphylococcus aureus; details: ATCC 33591, 18 h
Experimental: as §1

S. aureus 725 = type: cell-based, Staphylococcus aureus; details: 725, 18 h
Experimental: as §1

S. aureus 794 = type: cell-based, Staphylococcus aureus; details: 794, 18 h
Experimental: as §1

S. aureus ATCC 25923 = type: cell-based, Staphylococcus aureus; details: ATCC 25923, 18 h
Experimental: as §1

P. aeruginosa ATCC 27853 = type: cell-based, Pseudomonas aeruginosa; details: ATCC 27853, 18 h
Experimental: as §1

A. baumannii 51243 = type: cell-based, Acinetobacter baumannii; details: 51243, 18 h
Experimental: as §1

A. baumannii 5444 = type: cell-based, Acinetobacter baumannii; details: 5444, 18 h
Experimental: as §1

A. baumannii 822144 = type: cell-based, Acinetobacter baumannii; details: 822144, 18 h
Experimental: as §1

A. baumannii 8309 = type: cell-based, Acinetobacter baumannii; details: 8309, 18 h
Experimental: as §1

A. baumannii 91105 = type: cell-based, Acinetobacter baumannii; details: 91105, 18 h
Experimental: as §1

A. baumannii 91152 = type: cell-based, Acinetobacter baumannii; details: 91152, 18 h
Experimental: as §1

A. baumannii 91199 = type: cell-based, Acinetobacter baumannii; details: 91199, 18 h
Experimental: as §1

A. baumannii 91810 = type: cell-based, Acinetobacter baumannii; details: 91810, 18 h
Experimental: as §1

A. baumannii 91869 = type: cell-based, Acinetobacter baumannii; details: 91869, 18 h
Experimental: as §1

A. baumannii 91944 = type: cell-based, Acinetobacter baumannii; details: 91944, 18 h
Experimental: as §1

A. baumannii 9234 = type: cell-based, Acinetobacter baumannii; details: 9234, 18 h
Experimental: as §1

A. baumannii 92359 = type: cell-based, Acinetobacter baumannii; details: 92359, 18 h
Experimental: as §1

A. baumannii 9236 = type: cell-based, Acinetobacter baumannii; details: 9236, 18 h
Experimental: as §1

A. baumannii 9331 = type: cell-based, Acinetobacter baumannii; details: 9331, 18 h
Experimental: as §1

A. baumannii 9336 = type: cell-based, Acinetobacter baumannii; details: 9336, 18 h
Experimental: as §1

A. baumannii 97830 = type: cell-based, Acinetobacter baumannii; details: 97830, 18 h
Experimental: as §1

A. baumannii 98110 = type: cell-based, Acinetobacter baumannii; details: 98110, 18 h
Experimental: as §1

A. baumannii 9828 = type: cell-based, Acinetobacter baumannii; details: 9828, 18 h
Experimental: as §1

A. baumannii 9840 = type: cell-based, Acinetobacter baumannii; details: 9840, 18 h
Experimental: as §1

A. baumannii 9896 = type: cell-based, Acinetobacter baumannii; details: 9896, 18 h
Experimental: as §1

A. baumannii ATCC 19606 = type: cell-based, Acinetobacter baumannii; details: ATCC 19606, 18 h
Experimental: as §1

S. aureus = assay: Resistance development assay, sequential passaging; type: cell-based, Staphylococcus aureus; details: serial passage at sub-MIC
Experimental: Serial passage and MIC determination were used to explore whether the bacteria developed drug resistance. On the first day, the MICs of the peptides were determined as described above. The next day, the bacterial suspension of sub-MIC concentration was cultivated to the mid-log phase. The MICs of the peptides were detected again, and this process was repeated for 20 days. The MICs of the antibiotics, including amoxicillin (AML), ceftazidime (CAZ) and imipenem, were also determined as controls.

MRSA = system: MRSA; parameters: method as in PMID 32590058; details: cited from earlier work

## C=CCCCC(C)(NC(=O)[C@H](CCCCN)NC(=O)[C@H](CCCCN)NC(=O)[C@H](CC(C)C)NC(=O)[C@H](CC(C)C)NC(=O)[C@H](CCCCN)NC(=O)[C@H](CC(C)C)NC(=O)[C@@H](N)Cc1ccccc1)C(=O)N[C@@H](CC(C)C)C(N)=O (stereo partly drawn) [Feleucin-K69] (H-FLKLLKK[ξαMeGly(pent-4-enyl)]L-NH2)
E. coli ATCC 25922
  MIC, E. coli ATCC 25922: 8 µg/mL (≈ 7.01 µM)
MRSA 113
  MIC, MRSA 113: 4 µg/mL (≈ 3.51 µM)
MRSA 23
  MIC, MRSA 23: 4 µg/mL (≈ 3.51 µM)
MRSA 48
  MIC, MRSA 48: 4 µg/mL (≈ 3.51 µM)
MRSA 51
  MIC, MRSA 51: 4 µg/mL (≈ 3.51 µM)
MRSA 52
  MIC, MRSA 52: 4 µg/mL (≈ 3.51 µM)
MRSA 54
  MIC, MRSA 54: 4 µg/mL (≈ 3.51 µM)
MRSA 71
  MIC, MRSA 71: 4 µg/mL (≈ 3.51 µM)
MRSA 74
  MIC, MRSA 74: 8 µg/mL (≈ 7.01 µM)
MRSA 75
  MIC, MRSA 75: 4 µg/mL (≈ 3.51 µM)
MRSA 936
  MIC, MRSA 936: 4 µg/mL (≈ 3.51 µM)
MRSA ATCC 33591
  MIC, MRSA ATCC 33591: 4 µg/mL (≈ 3.51 µM)
S. aureus 725
  MIC, S. aureus 725: 4 µg/mL (≈ 3.51 µM)
S. aureus 794
  MIC, S. aureus 794: 8 µg/mL (≈ 7.01 µM)
S. aureus ATCC 25923
  MIC, S. aureus ATCC 25923: 4 µg/mL (≈ 3.51 µM)
P. aeruginosa ATCC 27853
  MIC, P. aeruginosa ATCC 27853: 8 µg/mL (≈ 7.01 µM)
A. baumannii 51243
  MIC, A. baumannii 51243: 8 µg/mL (≈ 7.01 µM)
A. baumannii 5444
  MIC, A. baumannii 5444: 8 µg/mL (≈ 7.01 µM)
A. baumannii 822144
  MIC, A. baumannii 822144: 8 µg/mL (≈ 7.01 µM)
A. baumannii 8309
  MIC, A. baumannii 8309: 8 µg/mL (≈ 7.01 µM)
A. baumannii 91105
  MIC, A. baumannii 91105: 8 µg/mL (≈ 7.01 µM)
A. baumannii 91152
  MIC, A. baumannii 91152: 8 µg/mL (≈ 7.01 µM)
A. baumannii 91199
  MIC, A. baumannii 91199: 8 µg/mL (≈ 7.01 µM)
A. baumannii 91810
  MIC, A. baumannii 91810: 8 µg/mL (≈ 7.01 µM)
A. baumannii 91869
  MIC, A. baumannii 91869: 8 µg/mL (≈ 7.01 µM)
A. baumannii 91944
  MIC, A. baumannii 91944: 8 µg/mL (≈ 7.01 µM)
A. baumannii 9234
  MIC, A. baumannii 9234: 8 µg/mL (≈ 7.01 µM)
A. baumannii 92359
  MIC, A. baumannii 92359: 4 µg/mL (≈ 3.51 µM)
A. baumannii 9236
  MIC, A. baumannii 9236: 8 µg/mL (≈ 7.01 µM)
A. baumannii 9331
  MIC, A. baumannii 9331: 8 µg/mL (≈ 7.01 µM)
A. baumannii 9336
  MIC, A. baumannii 9336: 8 µg/mL (≈ 7.01 µM)
A. baumannii 97830
  MIC, A. baumannii 97830: 8 µg/mL (≈ 7.01 µM)
A. baumannii 98110
  MIC, A. baumannii 98110: 8 µg/mL (≈ 7.01 µM)
A. baumannii 9828
  MIC, A. baumannii 9828: 8 µg/mL (≈ 7.01 µM)
A. baumannii 9840
  MIC, A. baumannii 9840: 8 µg/mL (≈ 7.01 µM)
A. baumannii 9896
  MIC, A. baumannii 9896: 8 µg/mL (≈ 7.01 µM)
A. baumannii ATCC 19606
  MIC, A. baumannii ATCC 19606: 8 µg/mL (≈ 7.01 µM)

## C=CCCCC(C)(NC(=O)[C@@H](N)Cc1ccccc1)C(=O)N[C@@H](CCCCN)C(=O)N[C@@H](CC(C)C)C(=O)N[C@@H](CC(C)C)C(=O)N[C@@H](CCCCN)C(=O)N[C@@H](CCCCN)C(=O)N[C@@H](CC(C)C)C(=O)N[C@@H](CC(C)C)C(N)=O (some centres unmarked) [Feleucin-K67] (H-F[ξαMeGly(pent-4-enyl)]KLLKKLL-NH2)
E. coli ATCC 25922
  MIC, E. coli ATCC 25922: 8 µg/mL (≈ 7.01 µM)
MRSA 113
  MIC, MRSA 113: 4 µg/mL (≈ 3.51 µM)
MRSA 23
  MIC, MRSA 23: 4 µg/mL (≈ 3.51 µM)
MRSA 48
  MIC, MRSA 48: 4 µg/mL (≈ 3.51 µM)
MRSA 51
  MIC, MRSA 51: 4 µg/mL (≈ 3.51 µM)
MRSA 52
  MIC, MRSA 52: 4 µg/mL (≈ 3.51 µM)
MRSA 54
  MIC, MRSA 54: 4 µg/mL (≈ 3.51 µM)
MRSA 71
  MIC, MRSA 71: 4 µg/mL (≈ 3.51 µM)
MRSA 74
  MIC, MRSA 74: 4 µg/mL (≈ 3.51 µM)
MRSA 75
  MIC, MRSA 75: 4 µg/mL (≈ 3.51 µM)
MRSA 936
  MIC, MRSA 936: 4 µg/mL (≈ 3.51 µM)
MRSA ATCC 33591
  MIC, MRSA ATCC 33591: 4 µg/mL (≈ 3.51 µM)
S. aureus 725
  MIC, S. aureus 725: 4 µg/mL (≈ 3.51 µM)
S. aureus 794
  MIC, S. aureus 794: 8 µg/mL (≈ 7.01 µM)
S. aureus ATCC 25923
  MIC, S. aureus ATCC 25923: 4 µg/mL (≈ 3.51 µM)
P. aeruginosa ATCC 27853
  MIC, P. aeruginosa ATCC 27853: 8 µg/mL (≈ 7.01 µM)
A. baumannii 51243
  MIC, A. baumannii 51243: 4 µg/mL (≈ 3.51 µM)
A. baumannii 5444
  MIC, A. baumannii 5444: 4 µg/mL (≈ 3.51 µM)
A. baumannii 822144
  MIC, A. baumannii 822144: 4 µg/mL (≈ 3.51 µM)
A. baumannii 8309
  MIC, A. baumannii 8309: 4 µg/mL (≈ 3.51 µM)
A. baumannii 91105
  MIC, A. baumannii 91105: 4 µg/mL (≈ 3.51 µM)
A. baumannii 91152
  MIC, A. baumannii 91152: 4 µg/mL (≈ 3.51 µM)
A. baumannii 91199
  MIC, A. baumannii 91199: 4 µg/mL (≈ 3.51 µM)
A. baumannii 91810
  MIC, A. baumannii 91810: 4 µg/mL (≈ 3.51 µM)
A. baumannii 91869
  MIC, A. baumannii 91869: 4 µg/mL (≈ 3.51 µM)
A. baumannii 91944
  MIC, A. baumannii 91944: 4 µg/mL (≈ 3.51 µM)
A. baumannii 9234
  MIC, A. baumannii 9234: 4 µg/mL (≈ 3.51 µM)
A. baumannii 92359
  MIC, A. baumannii 92359: 4 µg/mL (≈ 3.51 µM)
A. baumannii 9236
  MIC, A. baumannii 9236: 4 µg/mL (≈ 3.51 µM)
A. baumannii 9331
  MIC, A. baumannii 9331: 8 µg/mL (≈ 7.01 µM)
A. baumannii 9336
  MIC, A. baumannii 9336: 4 µg/mL (≈ 3.51 µM)
A. baumannii 97830
  MIC, A. baumannii 97830: 4 µg/mL (≈ 3.51 µM)
A. baumannii 98110
  MIC, A. baumannii 98110: 4 µg/mL (≈ 3.51 µM)
A. baumannii 9828
  MIC, A. baumannii 9828: 4 µg/mL (≈ 3.51 µM)
A. baumannii 9840
  MIC, A. baumannii 9840: 4 µg/mL (≈ 3.51 µM)
A. baumannii 9896
  MIC, A. baumannii 9896: 4 µg/mL (≈ 3.51 µM)
A. baumannii ATCC 19606
  MIC, A. baumannii ATCC 19606: 4 µg/mL (≈ 3.51 µM)

## CC1(C)S[C@@H]2[C@H](NC(=O)[C@H](N)c3ccc(O)cc3)C(=O)N2[C@H]1C(=O)O [AML, amoxicillin]
S. aureus; 20 passages
  maximum fold increase of MIC, S. aureus: ≤ 1024 fold
S. aureus; strain taken as S. aureus
  passage at which resistant mutants were produced: 5 passage
MRSA
  MIC against MRSA: up to 128 µg/mL
